{"source": "ChEMBL document CHEMBL5136985", "about": "“Natural and synthetic β-carboline as a privileged antifungal scaﬀolds” (Eur J Med Chem, 2022)", "key": {"Candida albicans [1]": {"system": "Candida albicans", "assay": "Antifungal activity against Candida albicans incubated for 24 hrs by TTC staining method", "type": "functional"}, "[2]": {"system": "Botryosphaeria berengeriana", "assay": "Antifungal activity against Physalospora pyricola assessed as inhibition rate of fungal growth at 50 mg/kg relative to control", "type": "functional"}, "Bipolaris maydis [3]": {"system": "Bipolaris maydis", "assay": "Antifungal activity against Bipolaris maydis assessed as inhibition rate of fungal growth at 50 mg/kg relative to control", "type": "functional"}, "[4]": {"system": "Botryosphaeria berengeriana", "assay": "Antifungal activity against Physalospora pyricola relative to control", "type": "functional"}, "Bipolaris oryzae [5]": {"system": "Bipolaris oryzae", "assay": "Antifungal activity against Bipolaris oryzae", "type": "functional, organism-based"}, "Alternaria solani [6]": {"system": "Alternaria solani", "assay": "Antifungal activity against Alternaria solani assessed as inhibition rate of fungal growth at 50 mg/kg relative to control", "type": "functional"}, "Bipolaris maydis [7]": {"system": "Bipolaris maydis", "assay": "Antifungal activity against Bipolaris maydis relative to control", "type": "functional", "set-up": "concentration or dose not given beside the values"}, "Bipolaris oryzae [8]": {"system": "Bipolaris oryzae", "assay": "Antifungal activity against Bipolaris oryzae incubated for 7 days", "type": "functional", "details": "168 h, time 7 day"}, "Gaeumannomyces graminis": {"system": "Gaeumannomyces graminis", "assay": "Antifungal activity against Gaeumannomyces graminis", "type": "functional, organism-based"}, "Botrytis cinerea": {"system": "Botrytis cinerea", "assay": "Antifungal activity against Botrytis cinerea", "type": "functional, organism-based"}, "Alternaria solani [9]": {"system": "Alternaria solani", "assay": "Antifungal activity against Alternaria solani relative to control", "type": "functional", "set-up": "concentration or dose not given beside the values"}, "Candida albicans [10]": {"system": "Candida albicans", "assay": "Antifungal activity against Candida albicans incubated for 24 to 48 hrs by 96-well plate method", "type": "functional", "details": "time 24-48 hrs"}, "[11]": {"system": "Cryptococcus deuterogattii", "assay": "Antifungal activity against Cryptococcus gattii VGII incubated for 24 to 48 hrs by 96-well plate method", "type": "functional, Cryptococcus gattii species complex", "details": "time 24-48 hrs"}, "Cryptococcus neoformans": {"system": "Cryptococcus neoformans", "assay": "Antifungal activity against Cryptococcus neoformans incubated for 24 to 48 hrs by 96-well plate method", "type": "functional", "details": "time 24-48 hrs"}, "Fusarium solani [12]": {"system": "Fusarium solani", "assay": "Antifungal activity against Fusarium solani incubated for 72 hrs", "type": "functional, organism-based", "details": "time 72 hrs"}, "Fusarium solani [13]": {"system": "Fusarium solani", "assay": "Antifungal activity against Fusarium solani relative to control", "type": "functional"}, "Mucor hiemalis": {"system": "Mucor hiemalis", "assay": "Antifungal activity against Mucor hiemalis by 96-well plate method", "type": "functional"}, "Saccharomyces cerevisiae": {"system": "Saccharomyces cerevisiae", "assay": "Antifungal activity against Saccharomyces cerevisiae assessed as diameter of zone inhibition at 100 ug per disk incubated for 24 hrs", "type": "functional", "details": "read-out: DIZ"}, "[14]": {"system": "Colletotrichum gloeosporioides", "assay": "Antifungal activity against Colletotrichum gloeosporioides assessed as diameter of zone inhibition at 100 ug per disk incubated for 24 hrs", "type": "functional", "details": "read-out: DIZ"}, "Phyllosticta citricarpa": {"system": "Phyllosticta citricarpa", "assay": "Antifungal activity Phyllosticta citricarpa against assessed as diameter of zone inhibition at 100 ug per disk incubated for 24 hrs", "type": "functional", "details": "read-out: DIZ"}}, "data": [{"smiles": "O=[N+]([O-])c1cccc(-c2nc(-c3n[nH]c(=S)o3)cc3c2[nH]c2ccccc23)c1", "values": [{"measurement": "MIC", "setting": "Candida albicans [1]", "result": 3.1, "unit": "µg/mL"}]}, {"smiles": "CC1NC(C(=O)N/N=C/c2ccc(Cl)c(Cl)c2)Cc2c1[nH]c1ccccc21", "note": "(configuration not stated)", "values": [{"measurement": "inhibition in vivo at 50 mg/kg", "setting": "[2]", "result": 97, "unit": "%"}, {"measurement": "inhibition in vivo at 50 mg/kg", "setting": "Bipolaris maydis [3]", "result": 80, "unit": "%"}, {"measurement": "Activity", "setting": "[4]", "result": 97, "unit": "%"}]}, {"smiles": "CCCCCN1CCc2c([nH]c3ccccc23)C1", "values": [{"measurement": "EC50", "setting": "Bipolaris oryzae [5]", "result": 110, "unit": "µg/mL"}]}, {"smiles": "Cc1nc(/C=C/C(=O)O)cc2c1[nH]c1ccccc12", "values": [{"measurement": "inhibition in vivo at 50 mg/kg", "setting": "Bipolaris maydis [3]", "result": 9.8, "unit": "%"}, {"measurement": "inhibition in vivo at 50 mg/kg", "setting": "Alternaria solani [6]", "result": 10.5, "unit": "%"}, {"measurement": "Activity", "setting": "Bipolaris maydis [7]", "result": 9.8, "unit": "%"}]}, {"smiles": "CCCCCCCCN1CCc2c([nH]c3ccccc23)C1", "values": [{"measurement": "MIC", "setting": "Bipolaris oryzae [8]", "result": 28, "unit": "µg/mL"}]}, {"smiles": "COC(=O)c1cc2c([nH]c3ccccc32)c(C(N)=O)n1", "values": [{"measurement": "EC50", "setting": "Gaeumannomyces graminis", "result": 450, "unit": "nM"}, {"measurement": "EC50", "setting": "Botrytis cinerea", "result": 14.2, "unit": "µM"}]}, {"smiles": "Cc1nccc2c1[nH]c1c([N+](=O)[O-])cccc12", "values": [{"measurement": "Activity", "setting": "Alternaria solani [9]", "result": 88.9, "unit": "%"}, {"measurement": "Activity", "setting": "Bipolaris maydis [7]", "result": 94.7, "unit": "%"}, {"measurement": "MIC", "setting": "Candida albicans [10]", "result": 40, "unit": "µg/mL"}, {"measurement": "MIC", "setting": "[11]", "result": 40, "unit": "µg/mL"}, {"measurement": "MIC", "setting": "Cryptococcus neoformans", "result": 40, "unit": "µg/mL"}]}, {"smiles": "CC(=O)Oc1ccc2c(c1)c1ccnc3ccc(=O)n2c31", "values": [{"measurement": "inhibition (INH)", "setting": "Fusarium solani [12]", "result": 86, "unit": "%"}, {"measurement": "Activity", "setting": "Fusarium solani [13]", "result": 86, "unit": "%"}]}, {"smiles": "CC(C)CCCC(=O)c1nc(C(=O)O)cc2c1[nH]c1ccccc12", "values": [{"measurement": "MIC", "setting": "Mucor hiemalis", "result": 8.3, "unit": "µg/mL"}]}, {"smiles": "C=Cc1nc(C(=O)O)cc2c1[nH]c1ccccc12", "values": [{"measurement": "zone of inhibition at 100 µg/disc", "setting": "Saccharomyces cerevisiae", "result": 9, "unit": "mm"}, {"measurement": "zone of inhibition at 100 µg/disc", "setting": "[14]", "result": 16, "unit": "mm"}, {"measurement": "zone of inhibition at 100 µg/disc", "setting": "Phyllosticta citricarpa", "result": 17, "unit": "mm"}]}]}
